Data published in publication PMC5540198, “A phase I trial of ganetespib in combination with paclitaxel and trastuzumab in patients with human epidermal growth factor receptor-2 (HER2)-positive metastatic breast cancer” (Breast Cancer Research : BCR, 2017).
Read-outs that look alike come from different tables or passages of the source. Marks after values point to notes of the source that are not given here.

Columns and labels:
[1] = parameters: method as in earlier work; settings: PET agent labelled with ^124I; cited from earlier work
[2] = test system: HER2-positive and ER-positive breast cancer; parameters: method as in PMID 18430202; settings: intravenous, single agent; among 10 patients; cited from earlier work
[3] = test system: HER2-positive metastatic breast cancer; parameters: method as in PMID 22781552; settings: plus trastuzumab; cited from earlier work
[4] = test system: HER2-positive breast cancer; parameters: method as in PMID 23580070; settings: in combination with trastuzumab; cited from earlier work
[5] = test system: trastuzumab-refractory HER2-positive metastatic breast cancer; parameters: method as in PMID 18048823, PMID 21558407; settings: in combination with trastuzumab; cited from earlier work
[6] = test system: patients with HER2-positive metastatic breast cancer; assay: Phase I dose-escalation trial: safety, DLT and RP2D of ganetespib with paclitaxel and trastuzumab; format: in vivo, human
Text: Patients were eligible if they were aged ≥ 18 years, had locally advanced or metastatic HER2-positive disease (defined as FISH ratio ≥ 2.0 or immunohistochemistry (IHC) 3+), ECOG ≤ 2, measurable disease per RECIST 1.1 [23], and adequate end organ function (defined as hemoglobin ≥ 9 g/dl, absolute neutrophil count (ANC) ≥ 1.5 × 10^9/L, platelets ≥ 100 × 10^9/L, bilirubin ≤ 1.5 upper limit of normal (ULN), aspartate aminotransferase (AST) and alanine aminotransferase (ALT) ≤ 2.5 ULN, and serum creatinine ≤ 1.5 ULN). Patients must have received prior trastuzumab and those with estrogen receptor (ER)-positive disease must have received prior endocrine therapy. Any number of prior lines of chemotherapy in the metastatic setting was allowed. Progression on prior treatment with pertuzumab and T-DM1 was required (unless heavily pretreated prior to FDA approval of pertuzumab for first-line treatment of HER2-positive metastatic breast cancer (6/2012) and/or T-DM1 (2/2013)).
Patients received intravenous infusions of trastuzumab and paclitaxel with ganetespib on days 1, 8, and 15 and of trastuzumab and paclitaxel on day 22 of a 28-day cycle. The sequence of administration was trastuzumab (2 mg/kg) followed by paclitaxel (80 mg/m^2) followed by ganetespib. If the patient’s last dose of trastuzumab was >21 days before enrollment, they received a loading dose of trastuzumab at 4 mg/kg over 90 minutes. Ganetespib was then administered intravenously over 60 minutes. The starting dose of ganetespib was 100 mg/m^2, and if there were no DLTs the next cohort would escalate to 150 mg/m^2. A further dose level of 125 mg/m^2 was incorporated in the circumstance of good tolerance of the 100 mg/m^2 but poor tolerance of the 150 mg/m^2 dose levels. There was no dose escalation for paclitaxel and trastuzumab. Therapy was continued until disease progression or unacceptable toxicity.
Patients were examined and assessed for toxicities during and prior to each cycle. Toxicity was graded according to National Cancer Institute (NCI) CTCAE version 4.0 (http://ctep.cancer.gov/protocolDevelopment/electronic_applications/ctc.htm#ctc_40). Patients were evaluated for DLT during cycle 1. DLT was defined as any drug-related grade ≥ 4 nonhematologic adverse events (AEs) or any grade 3 nonhematologic AEs not improving to baseline or grade ≤ 1 by day 14; grade 4 neutropenia lasting ≥ 7 days, or febrile neutropenia, grade 4 thrombocytopenia, or any grade 3 thrombocytopenia that has not recovered to grade ≤ 2 by day 7; or any treatment-related toxicity prompting a dose reduction of ganetespib during the DLT observation period.
Paclitaxel dose reductions were not permitted during the DLT observation period. For dosing beyond cycle 1, paclitaxel was held if patients experienced any other grade 3 or 4 toxicity thought to be related to paclitaxel until symptoms resolved to grade 1/baseline grade. One dose reduction for paclitaxel to 65 mg/m^2 was permitted.

[7] = Pharmacokinetics of paclitaxel in plasma, cycle 1 day 8 to day 9; format: in vivo, human
Protocol: Blood samples for determination of plasma concentrations of paclitaxel were collected on cycle 1, day 8 through cycle 1, day 9 at the following time points after trastuzumab infusion and relative to the start of the paclitaxel infusion: 5 minutes prior to treatment, and 30 and 60 minutes (immediately prior to stopping the paclitaxel infusion pump and starting the ganetespib infusion) after start of paclitaxel infusion. Blood samples were also collected at the following time points after starting ganetespib infusion: 1.5, 2, 4, 7, 21, 24, 27, and 31 hours. Each blood sample (3–5 ml) was collected in sodium heparin tubes and transferred into two polypropylene tubes (1 ml each) and stored at –80 °C. PK were performed in collaboration with Synta Pharmaceuticals, Inc. PK parameters of paclitaxel (such as the area under the curve (AUC) and the maximum serum concentration (Cmax)) were examined descriptively to evaluate the effect of ganetespib on these measures.

[8] = test system: HER2-positive metastatic breast cancer; assay: Phase I trial: anti-tumor activity by RECIST 1.1; format: in vivo, human
Protocol: The sequence of administration was trastuzumab (2 mg/kg) followed by paclitaxel (80 mg/m^2) followed by ganetespib. If the patient’s last dose of trastuzumab was >21 days before enrollment, they received a loading dose of trastuzumab at 4 mg/kg over 90 minutes. Ganetespib was then administered intravenously over 60 minutes. The starting dose of ganetespib was 100 mg/m^2, and if there were no DLTs the next cohort would escalate to 150 mg/m^2. A further dose level of 125 mg/m^2 was incorporated in the circumstance of good tolerance of the 100 mg/m^2 but poor tolerance of the 150 mg/m^2 dose levels. There was no dose escalation for paclitaxel and trastuzumab. Therapy was continued until disease progression or unacceptable toxicity. Patients were evaluated for response initially after two cycles and then every three cycles thereafter using the RECIST criteria. All patients with PR or complete response (CR) were required to have confirmation of response 4 weeks after the criteria for response were first met. The best overall response was defined as the best response recorded from the start of treatment until disease progression or withdrawal from the study. […] The CBR was defined as the proportion of patients whose best overall response, according to RECIST, was CR, PR, or SD lasting for at least 24 weeks.

metastatic breast cancer = test system: metastatic breast cancer; parameters: method as in PMID 24512858; settings: cited from earlier work

CC(C)NCCCn1c(Sc2cc3c(cc2[124I])OCO3)nc2c(N)ncnc21 [^124I-PU-H71]
half-life [1]: 96.5 h

CCNC(=O)c1noc(-c2cc(C(C)C)c(O)cc2O)c1-c1ccc(CN2CCOCC2)cc1 [NVP-AUY922]
confirmed PR by RECIST, number [2]: one
partial metabolic responses on FDG-PET, number [2]: two

CO[C@H]1/C=C\C=C(/C)C(=O)NC2=CC(=O)C(NCCN(C)C)=C(C[C@@H](C)C[C@H](OC)[C@H](O)[C@@H](C)/C=C(\C)[C@@H]1OC(N)=O)C2=O [alvespimycin]
partial response (PR), number of cases [3]: one
stable disease (SD) lasting >6 months, number of cases [3]: six

C=CCNc1c(O)cc2c(O)c1C[C@@H](C)C[C@H](OC)[C@H](O)[C@@H](C)/C=C(\C)[C@H](OC(N)=O)[C@@H](OC)/C=C\C=C(/C)C(=O)N2 [retaspimycin]
patients with stable disease [4]: 62%

C=CCNC1=C2C[C@@H](C)C[C@H](OC)[C@H](O)[C@@H](C)/C=C(\C)[C@H](OC(N)=O)[C@@H](OC)/C=C\C=C(/C)C(=O)NC(=CC1=O)C2=O [tanespimycin]
clinical benefit rate (CBR) [5]: 59%
response rate [5]: 22%

CC(=O)O[C@H]1C(=O)[C@@]2(C)[C@H]([C@H](OC(=O)c3ccccc3)[C@]3(O)C[C@H](OC(=O)[C@H](O)[C@@H](NC(=O)c4ccccc4)c4ccccc4)C(C)=C1C3(C)C)[C@]1(OC(C)=O)CO[C@@H]1C[C@@H]2O [paclitaxel]
Grade 3 blurred vision/grade 3 dry eyes (in same patient), N patients ([6]; of nine patients, attributable to paclitaxel): 1^a
Tmax ([7]; human, in vivo, iv): 1.0 ± 0.0 h
half-life ([7]; human, in vivo, iv): 13.6 ± 3.3 h
Tmax ([7]; human, in vivo, iv, Tmax): 0.8 ± 0.3 h
Cmax ([7]; human, in vivo, iv, paclitaxel 80 mg/m^2 i.v., ganetespib 100 mg/m^2, n=3): 3340 ± 1270 ng/mL
T1/2 ([7]; paclitaxel 80 mg/m^2 i.v., ganetespib 100 mg/m^2, n=3): 12.9 ± 0.4 h

CC(C)c1cc(-c2n[nH]c(=O)n2-c2ccc3c(ccn3C)c2)c(O)cc1O [ganetespib, 5-(2,4-dihydroxy-5-(1-methylethyl)phenyl)-4-(1-methyl-1H-indol-5-yl)-2,4-dihydro-(1,2,4)triazol-3-one]
recommended phase II dose (RP2D) ([6]; in combination with weekly paclitaxel plus trastuzumab): 150 mg/m^2
anemia, grade 1/2, drug-related ([6]; nine patients): 44%
diarrhea, grade 1/2, drug-related ([6]; nine patients): 78%
elevated AST or ALT, grade 1/2, drug-related ([6]; nine patients): 32%
fatigue, grade 1/2, drug-related ([6]; nine patients): 67%
nausea, grade 1/2, drug-related ([6]; nine patients): 32%
rash, grade 1/2, drug-related ([6]; nine patients): 32%
grade 4 AEs related to ganetespib ([6]; nine patients, CTCAE 4.0): no grade 4 AEs
patients with dose-limiting toxicities (DLTs) ([6]; nine patients, cycle 1, 100 and 150 mg/m^2 cohorts): None
Grade 3 ALT, increased, N patients ([6]; of nine patients): 1
Grade 3 phosphorus, decreased, N patients ([6]; of nine patients): 1
Grade 3 pruritus, N patients ([6]; of nine patients): 1
overall response rate (ORR), confirmed partial responses ([8]; ganetespib 100 or 150 mg/m^2 days 1, 8, 15 with weekly paclitaxel 80 mg/m^2 and trastuzumab 2 mg/kg, 2/9 patients, both in 150 mg/m^2 cohort): 22%
clinical benefit rate (CBR: CR, PR or SD at least 24 weeks) ([8]; triplet regimen, 4/9 patients): 44%
median progression-free survival ([8]; triplet regimen, nine patients): 20 weeks
progression-free survival, range ([8]; triplet regimen, nine patients): 8–55 weeks
ORR (metastatic breast cancer; single-agent ganetespib): 15%
cases of SD in HER2-positive patients, number (metastatic breast cancer; single-agent, HER2-positive metastatic breast cancer): six
confirmed PRs, number (metastatic breast cancer; single-agent, HER2-positive, trastuzumab-refractory metastatic breast cancer): two
SDs, total number (metastatic breast cancer; single-agent, six HER2-positive and one TNBC): seven
